Source: US12275850B2, “Organic-inorganic hybrid material comprising a metal and lignin, processes for preparing the same and uses thereof” (UPM-KYMMENE CORPORATION, priority 2018, dated 2025)

Key:
Assay in all cases: MIC, agar dilution / broth microdilution
Format in all cases: cell-based
Conditions in all cases: mainly agar dilution; g/l of material; for Copper MIC refers to concentration of copper
[1] = test system: Fusarium solani
Procedure: (§1) The antimicrobial activity of organic-inorganic hybrid materials of the present invention was evaluated through in vitro test of antimicrobial susceptibility with broth microdilution method and agar dilution method (CLSI protocol—Clinical and Laboratory Standards Institute). […] Agar dilution assay was used: the organic-inorganic hybrid materials were incorporated at different concentrations into the agar medium (specific for each microorganism) and after solidification of the medium, the inoculum (10^4 CFU/ml for the fungi and […] for the bacteria) was applied to the agar surface. Broth microdilution assay: the organic-inorganic hybrid materials were diluted into specific liquid media in the presence of a well-defined microbial suspension (10^4 CFU/ml for the fungi and […] for the bacteria). In the broth microdilution assay, the organic-inorganic hybrid materials were diluted into specific liquid media, but they resulted insoluble with the formation of precipitates on the bottom of the wells, consequently the MIC were mainly determinate with agar dilution assay. Two controls were prepared for the tests: a positive control of activity through use of Miconazole (against fungi) and Ceftriaxone (against bacteria). All the tests have been carried out in triplicate, giving very similar inhibition results. In parenthesis, the concentration (g/l) of copper relative to the corresponding copper-lignin derivative. For copper sulphate pentahydrate (copper) and copper hydroxide (copper 2) the MIC refer to the concentration of copper (g/l): […]

[2] = test system: Campylobacter jejuni
Procedure: as §1

[3] = test system: Alternaria solani
Procedure: as §1

[4] = test system: Monilia laxa
Procedure: as §1

[5] = test system: Xanthomonas campestris
Procedure: as §1

[6] = test system: Erwinia amylovora
Procedure: as §1

[7] = test system: Pseudomonas aeruginosa
Procedure: as §1

[8] = test system: Rizoctonia solani
Procedure: as §1

[9] = test system: Septoria tritici
Procedure: as §1

[10] = test system: Pseudomonas syringae pv. actinidiae
Procedure: as §1

[11] = test system: Candida albicans
Procedure: as §1

[12] = test system: Escherichia coli
Procedure: as §1

[13] = test system: Staphylococcus aureus
Procedure: as §1

[14] = test system: Salmonella enteriditis
Procedure: as §1

[15] = test system: Botritis cinerea
Procedure: as §1

[16] = test system: Xanthomonas arboricola pv. pruni
Procedure: as §1

[Cu+2].[OH-].[OH-] [Copper, Copper hydroxide]
MIC (g/l) F. solani [1]: 10.4 g/L
MIC (g/l) C. jejuni [2]: <0.16 g/L
MIC (g/l) A. solani [3]: 5.2 g/L
MIC (g/l) M. laxa [4]: 0.65 g/L
MIC (g/l) X. campestris [5]: 0.32 g/L
MIC (g/l) E. amylovora [6]: 0.65 g/L
MIC (g/l) P. aeruginosa [7]: 1.30 g/L
MIC (g/l) R. solani [8]: 0.32 g/L
MIC (g/l) S. tritici [9]: 0.65 g/L
MIC (g/l) P. syringae [10]: 0.32 g/L
MIC (g/l) C. albicans [11]: 1.30 g/L
MIC (g/l) E. coli [12]: 0.32 g/L
MIC (g/l) S. aureus [13]: 0.32 g/L
MIC (g/l) S. enteridis [14]: 0.65 g/L
MIC (g/l) B. cinerea [15]: 5.2 g/L
MIC (g/l) X. arboricola [16]: <0.16 g/L
